Active and inactive are the calls of the source. No cut-off for these calls is given here.
Tests used:
[1] = Toxicity against male ICR mouse assessed as effect on kidney weight at 200 to 500 mg/kg administered via gavage for 12 days; assay type: organism-based; conditions: in vivo, po, 288 h, dose 200-500 mg/kg, time 12 day
Mus musculus [2] = assay: Antiinflammatory activity against DSS-induced ulcerative colitis C57BL/6 mouse assessed as reduction in colon length shortening at 10 mg/kg, ip administered for 9 days and measured on day 10; assay type: functional, organism-based; conditions: time 10.0 day
Mus musculus [3] = assay: Antiinflammatory activity against MCD diet-induced NASH C57BL/6 mouse model assessed as reduction in liver steatosis at 40 mg/kg, po administered via gavage for 5 weeks by Sirius red staining based analysis; assay type: functional, organism-based
Mus musculus [4] = assay: Antiinflammatory activity against DSS-induced ulcerative colitis C57BL/6 mouse assessed as reduction in crypt necrosis in colon at 10 mg/kg, ip administered for 9 days and measured on day 10 by H and E staining based analysis; assay type: functional, organism-based; conditions: time 10.0 day
[5] = target: NACHT, LRR and PYD domains-containing protein 3 (Mus musculus) (UniProt Q8R4B8); assay: Inhibition of NLRP3 inflammasome in mouse J774.A1 cells assessed as inhibition of caspase-1 activation at 30 nM primed with LPS for 4.5 hrs followed by incubation with compound for 24 hrs and later stimulated with nigericin for 1 hr by immunoblot analysis; assay type: cell-based; conditions: time 25.0 hrs
[6] = Toxicity against female ICR mouse assessed as effect on kidney weight at 200 to 500 mg/kg administered via gavage for 12 days; assay type: organism-based; conditions: in vivo, po, 288 h, dose 200-500 mg/kg, time 12 day
Mus musculus [7] = assay: Antiinflammatory activity against MCD diet-induced NASH C57BL/6 mouse model assessed as reduction in balloon dilatation in liver at 40 mg/kg, po administered via gavage for 5 weeks by Masson's trichrome staining based analysis; assay type: functional, organism-based
THP-1 [8] = assay: Effect on mitochondrial function in PMA-induced differentiated human THP-1 cells assessed as effect on extracellular ATP-induced decrease in mitochondrial membrane potential at 30 nM pretreated with compound for 24 hrs followed by stimulation with LPS for 4.5 hrs and ATP for 1 hr by MitoTracker red dye based confocal microscopy; assay type: functional, cell-based; conditions: time 29.5 hrs
[9] = Apparent volume of distribution in ICR mouse at 5 mg/kg, iv by LC-MS/MS analysis; assay type: ADME, organism-based; conditions: in vivo, read-out: Vz
J774.A1 = assay: Effect on pro-IL-1 beta protein expression in mouse J774.A1 cells at 3 to 30 nM primed with LPS for 4.5 hrs followed by incubation with compound for 2.5 hrs and later stimulated with ATP for 30 mins by immunoblot analysis; assay type: functional, cell-based; conditions: dose 3-30 nM, time 3.0 hrs
[10] = target: NLR family CARD domain-containing protein 4 (Mus musculus) (UniProt Q3UP24); assay: Inhibition of NLRC4 inflammasome in mouse J774.A1 cells assessed as inhibition of IL-1 beta secretion at 30 nM primed with LPS for 4.5 hrs followed by incubation with compound for 24 hrs and later stimulated with flagellin for 24 hrs by immunoblot analysis; assay type: cell-based; conditions: time 48.0 hrs
[11] = Toxicity against female ICR mouse assessed as effect on plasma creatinine level at 200 to 500 mg/kg administered via gavage for 12 days; assay type: organism-based; conditions: in vivo, po, 288 h, dose 200-500 mg/kg, time 12 day
[12] = Toxicity against male ICR mouse assessed as effect on plasma AST level at 200 to 500 mg/kg administered via gavage for 12 days; assay type: organism-based; conditions: in vivo, po, 288 h, dose 200-500 mg/kg, time 12 day
Mus musculus [13] = assay: Antiinflammatory activity against LPS-induced lethal septic shock C57BL/6 mouse model assessed as reduction in serum IL-1 beta level at 20 to 40 mg/kg, ip administered for 1 hr prior to LPS challenge and measured after 2.5 hrs by ELISA; assay type: functional, organism-based; conditions: dose 20-40 mg/kg, time 3.5 hrs
[14] = target: NACHT, LRR and PYD domains-containing protein 3 (Homo sapiens) (UniProt Q96P20); assay: Inhibition of NLRP3 inflammasome in PMA-induced differentiated human THP-1 cells assessed as inhibition of IL-1 beta secretion primed with LPS for 4.5 hrs followed by incubation with compound for 2.5 hrs and later stimulated with ATP for 1 hr by immunoblot analysis; assay type: cell-based; conditions: dose 3-30 nM, time 3.5 hrs
THP-1 [15] = assay: Effect on ROS production in PMA-induced differentiated human THP-1 cells at 30 nM pretreated with compound for 24 hrs followed by stimulation with LPS for 4.5 hrs and ATP for 1 hr by MitoSOX dye based confocal microscopy; assay type: functional, cell-based; conditions: time 29.5 hrs
[16] = Oral bioavailability in ICR mouse at 10 mg/kg by LC-MS/MS analysis; assay type: ADME, organism-based; conditions: in vivo
[17] = Drug uptake in Sprague-Dawley rat muscle at 50 mg/kg, po measured for 24 hrs by LC-MS/MS analysis; assay type: ADME, organism-based, Muscle tissue; conditions: in vivo
Mus musculus [18] = assay: Antiinflammatory activity against MCD diet-induced NASH C57BL/6 mouse model assessed as reduction in liver fibrosis at 40 mg/kg, po administered via gavage for 5 weeks by H and E staining based analysis; assay type: functional, organism-based
[19] = Toxicity against male ICR mouse assessed as effect on spleen weight at 200 to 500 mg/kg administered via gavage for 12 days; assay type: organism-based; conditions: in vivo, po, 288 h, dose 200-500 mg/kg, time 12 day
Mus musculus [20] = assay: Antiinflammatory activity against MCD diet-induced NASH C57BL/6 mouse model assessed as reduction in liver fibrosis at 40 mg/kg, po administered via gavage for 5 weeks by Sirius red staining based analysis; assay type: functional, organism-based
[21] = Toxicity against male ICR mouse assessed as effect on heart weight at 200 to 500 mg/kg administered via gavage for 12 days; assay type: organism-based; conditions: in vivo, po, 288 h, dose 200-500 mg/kg, time 12 day
[22] = Toxicity against female ICR mouse assessed as effect on ratio of plasma AST to ALT level at 200 to 500 mg/kg administered via gavage for 12 days; assay type: organism-based; conditions: in vivo, po, 288 h, dose 200-500 mg/kg, time 12 day
[23] = MRT (0 to infinity) in ICR mouse at 10 mg/kg, po by LC-MS/MS analysis; assay type: ADME, organism-based; conditions: in vivo
[24] = target: NACHT, LRR and PYD domains-containing protein 3 (Mus musculus) (UniProt Q8R4B8); assay: Inhibition of NLRP3 inflammasome in mouse J774.A1 cells assessed as inhibition of IL-1 beta secretion at 30 nM primed with LPS for 4.5 hrs followed by incubation with compound for 24 hrs and later stimulated with nigericin for 1 hr by immunoblot analysis; assay type: cell-based; conditions: time 25.0 hrs
Mus musculus [25] = assay: Antiinflammatory activity against LPS-induced lethal septic shock C57BL/6 mouse model assessed as increase in animal's survival rate at 40 mg/kg, ip administered for 1 hr prior to LPS challenge and measured for 72 hrs; assay type: functional; conditions: time 73 hrs
[26] = Toxicity against male ICR mouse assessed as effect on plasma ALT level at 200 to 500 mg/kg administered via gavage for 12 days; assay type: organism-based; conditions: in vivo, po, 288 h, dose 200-500 mg/kg, time 12 day
Mus musculus [27] = assay: Antiinflammatory activity against MCD diet-induced NASH C57BL/6 mouse model assessed as improvement in liver morphology at 40 mg/kg, po administered via gavage for 5 weeks by Sirius red staining based analysis; assay type: functional, organism-based
[28] = Tmax in ICR mouse at 10 mg/kg, po by LC-MS/MS analysis; assay type: ADME, organism-based; conditions: in vivo
Mus musculus [29] = assay: Antiinflammatory activity against MCD diet-induced NASH C57BL/6 mouse model assessed as reduction in liver steatosis at 40 mg/kg, po administered via gavage for 5 weeks by Masson's trichrome staining based analysis; assay type: functional, organism-based
Mus musculus [30] = assay: Antiinflammatory activity against MCD diet-induced NASH C57BL/6 mouse model assessed as improvement in liver morphology at 40 mg/kg, po administered via gavage for 5 weeks by Masson's trichrome staining based analysis; assay type: functional, organism-based
[31] = Toxicity against female ICR mouse assessed as effect on plasma AST level at 200 to 500 mg/kg administered via gavage for 12 days; assay type: organism-based; conditions: in vivo, po, 288 h, dose 200-500 mg/kg, time 12 day

Sequence of NACHT, LRR and PYD domains-containing protein 3 (Mus musculus) (Q8R4B8 whole entry, the tested form may be a part): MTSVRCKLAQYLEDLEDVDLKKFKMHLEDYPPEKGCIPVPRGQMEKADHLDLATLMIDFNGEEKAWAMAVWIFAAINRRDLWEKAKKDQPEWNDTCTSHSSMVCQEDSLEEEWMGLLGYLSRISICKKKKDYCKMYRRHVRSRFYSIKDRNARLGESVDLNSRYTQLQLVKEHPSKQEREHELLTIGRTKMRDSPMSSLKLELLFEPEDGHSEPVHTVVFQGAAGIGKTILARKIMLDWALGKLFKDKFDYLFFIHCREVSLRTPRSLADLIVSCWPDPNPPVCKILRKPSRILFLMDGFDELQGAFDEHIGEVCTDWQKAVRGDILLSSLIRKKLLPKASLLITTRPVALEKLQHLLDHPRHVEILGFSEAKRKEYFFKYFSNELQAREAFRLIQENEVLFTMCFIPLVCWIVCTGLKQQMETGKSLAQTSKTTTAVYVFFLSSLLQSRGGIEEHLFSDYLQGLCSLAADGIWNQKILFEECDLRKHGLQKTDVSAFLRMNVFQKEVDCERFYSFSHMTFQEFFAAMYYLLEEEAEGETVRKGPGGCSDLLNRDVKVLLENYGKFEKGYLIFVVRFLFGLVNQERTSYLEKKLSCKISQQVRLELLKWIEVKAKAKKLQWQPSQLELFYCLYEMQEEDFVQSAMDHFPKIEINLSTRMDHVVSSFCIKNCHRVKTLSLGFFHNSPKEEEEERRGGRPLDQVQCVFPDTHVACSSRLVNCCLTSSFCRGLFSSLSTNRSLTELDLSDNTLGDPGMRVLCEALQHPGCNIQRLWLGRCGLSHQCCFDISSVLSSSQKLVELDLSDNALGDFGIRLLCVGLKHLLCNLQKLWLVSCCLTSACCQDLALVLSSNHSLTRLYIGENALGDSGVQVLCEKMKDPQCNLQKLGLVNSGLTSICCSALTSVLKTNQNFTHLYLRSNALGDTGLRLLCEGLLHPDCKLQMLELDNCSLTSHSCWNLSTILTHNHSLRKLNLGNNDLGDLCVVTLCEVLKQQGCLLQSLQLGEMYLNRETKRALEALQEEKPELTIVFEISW
Sequence of NLR family CARD domain-containing protein 4 (Mus musculus) (Q3UP24 whole entry, the tested form may be a part): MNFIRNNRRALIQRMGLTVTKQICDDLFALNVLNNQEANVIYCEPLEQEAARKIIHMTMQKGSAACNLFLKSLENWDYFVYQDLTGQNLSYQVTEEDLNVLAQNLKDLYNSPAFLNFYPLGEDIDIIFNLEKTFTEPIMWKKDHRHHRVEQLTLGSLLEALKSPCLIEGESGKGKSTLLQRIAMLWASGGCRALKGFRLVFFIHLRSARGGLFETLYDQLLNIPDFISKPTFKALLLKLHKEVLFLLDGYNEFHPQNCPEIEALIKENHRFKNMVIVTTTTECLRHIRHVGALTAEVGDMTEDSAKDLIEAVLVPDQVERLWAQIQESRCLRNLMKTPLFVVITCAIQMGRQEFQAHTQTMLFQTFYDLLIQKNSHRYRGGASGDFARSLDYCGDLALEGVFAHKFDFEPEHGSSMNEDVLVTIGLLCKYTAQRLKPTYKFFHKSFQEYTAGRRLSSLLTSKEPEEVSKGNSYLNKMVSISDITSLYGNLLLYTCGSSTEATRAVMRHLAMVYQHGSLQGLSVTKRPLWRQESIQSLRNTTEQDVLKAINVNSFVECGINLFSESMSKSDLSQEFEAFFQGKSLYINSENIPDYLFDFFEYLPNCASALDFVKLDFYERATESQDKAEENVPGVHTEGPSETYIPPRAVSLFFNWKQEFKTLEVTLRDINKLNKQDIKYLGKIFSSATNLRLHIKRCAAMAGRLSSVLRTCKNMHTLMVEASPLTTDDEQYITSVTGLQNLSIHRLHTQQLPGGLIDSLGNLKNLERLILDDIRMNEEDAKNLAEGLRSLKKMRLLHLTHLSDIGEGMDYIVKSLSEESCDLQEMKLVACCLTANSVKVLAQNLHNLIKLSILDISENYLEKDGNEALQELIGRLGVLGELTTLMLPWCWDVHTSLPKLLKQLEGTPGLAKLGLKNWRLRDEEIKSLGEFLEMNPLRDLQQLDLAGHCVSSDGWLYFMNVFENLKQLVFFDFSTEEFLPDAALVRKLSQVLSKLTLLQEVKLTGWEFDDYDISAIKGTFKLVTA
Sequence of NACHT, LRR and PYD domains-containing protein 3 (Homo sapiens) (Q96P20 whole entry, the tested form may be a part): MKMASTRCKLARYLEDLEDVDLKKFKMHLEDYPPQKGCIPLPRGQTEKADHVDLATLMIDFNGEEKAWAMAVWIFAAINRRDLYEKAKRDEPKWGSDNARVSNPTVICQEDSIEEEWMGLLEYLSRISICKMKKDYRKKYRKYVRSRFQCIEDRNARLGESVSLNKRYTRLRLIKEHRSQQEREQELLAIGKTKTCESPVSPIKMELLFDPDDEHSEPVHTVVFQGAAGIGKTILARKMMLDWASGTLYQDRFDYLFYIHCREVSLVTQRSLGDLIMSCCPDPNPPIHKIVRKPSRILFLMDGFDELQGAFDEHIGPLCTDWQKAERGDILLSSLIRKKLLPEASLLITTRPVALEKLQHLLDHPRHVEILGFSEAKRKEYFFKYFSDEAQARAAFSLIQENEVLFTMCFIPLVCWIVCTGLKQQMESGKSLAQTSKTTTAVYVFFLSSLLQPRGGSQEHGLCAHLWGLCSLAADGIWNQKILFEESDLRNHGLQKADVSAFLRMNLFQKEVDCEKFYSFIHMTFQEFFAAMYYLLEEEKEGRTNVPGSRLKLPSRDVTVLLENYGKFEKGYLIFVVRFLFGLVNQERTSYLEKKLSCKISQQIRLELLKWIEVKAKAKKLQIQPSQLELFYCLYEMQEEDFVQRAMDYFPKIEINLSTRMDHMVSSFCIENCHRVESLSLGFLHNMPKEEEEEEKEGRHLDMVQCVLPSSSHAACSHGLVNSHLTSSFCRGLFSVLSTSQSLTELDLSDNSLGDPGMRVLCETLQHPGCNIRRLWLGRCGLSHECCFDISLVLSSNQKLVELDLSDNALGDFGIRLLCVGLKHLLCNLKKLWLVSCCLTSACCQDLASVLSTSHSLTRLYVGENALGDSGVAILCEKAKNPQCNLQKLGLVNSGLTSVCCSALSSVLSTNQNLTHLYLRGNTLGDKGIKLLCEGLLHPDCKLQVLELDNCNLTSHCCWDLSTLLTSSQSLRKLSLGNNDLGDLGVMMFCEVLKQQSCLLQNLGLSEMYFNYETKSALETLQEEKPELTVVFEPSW

In the case of CN(C)Cc1ccc(S(=O)(=O)NC(=O)Nc2c3c(cc4c2CCC4)CCC3)cc1, the Activity [1] is reported as “Non-Toxic”, the Activity (Mus musculus [2]) is reported as “Active” and the Activity (Mus musculus [3]) is reported as “Active”. The Activity (Mus musculus [4]) was “Active”, the inhibition [5] was “Active” and the Activity [6] was “Non-Toxic”. The Activity (Mus musculus [7]) was “Active”, the Activity (THP-1 [8]) was “inactive” and the Vd [9] was 0.226 L/kg. For the same compound, the Activity (J774.A1) was “inactive”, the inhibition [10] was “inactive” and the Activity [11] was “Non-Toxic”. For the same compound, the Activity [12] was “Non-Toxic”, the Activity (Mus musculus [13]) was “Active” and the inhibition [14] was “Dose-Dependent Effect”. The Activity (THP-1 [15]) was “inactive”, the bioavailability [16] was 85.2% and the Drug uptake [17] was “Active”. The Activity (Mus musculus [18]) was “Active”, the Activity [19] was “Non-Toxic” and the Activity (Mus musculus [20]) was “Active”. For the same compound, the Activity [21] was “Non-Toxic”, the Activity [22] was “Non-Toxic” and the MRT inf [23] was 4.79 h. For the same compound, the inhibition [24] was “Active”, the survival at 40 mg/kg (Mus musculus [25]) was 70% and the Activity [26] was “Non-Toxic”. For the same compound, the Activity (Mus musculus [27]) was “Active”, the Tmax [28] was 0.667 h and the Activity (Mus musculus [29]) was “Active”. For the same compound, the Activity (Mus musculus [30]) was “Active” and the Activity [31] was “Non-Toxic”.

From ChEMBL document CHEMBL5365473, “Novel Sulfonylurea-Based NLRP3 Inflammasome Inhibitor for Efficient Treatment of Nonalcoholic Steatohepatitis, Endotoxic Shock, and Colitis” (J Med Chem, 2023)
